Read-outs that look alike come from different tables or passages of the source.

Assay in all cases: Two-step fluorescence assay for determination of IC50
What all share (assay type): biochemical

One assay deals with HDAC1 (Homo sapiens, UniProt Q13547). As to the method: (§1) In order to evaluate the inhibitory characteristics of example compounds of the invention, IC50 values were determined for such compounds. […] A two-step assay was used for this purpose.
(§2) To obtain the IC50 value for an individual compound/HDAC pair, a two-step assay can be performed based on a fluorescence signal. In principle, an ε-acetylated lysine substrate is deacetylated by histone-deacetylases in the first step. Trypsin releases detectable 7-amino-4-methylcoumarin (ex = excitation wavelength: 390 nm, em = emission wavelength: 460 nm) by cleaving the substrate at the deacetylated lysine in a subsequent reaction^[9]. The enzyme activity is inhibited by a suitable HDACi.
(§3) The obtained data are interpreted using a four parameter fit. Based on this fit, the IC50 value can be estimated. Analysis ot the data and calculation of the IC50 values was accomplished using a four-parameter logistic model protocol as previously described by Vølund^[16]. For nonlinear fits the Levenberg-Marquardt algorithm was applied^[17],[18]. […] Table 1: IC50 values in µM for synthesized compounds of the invention with a perfluorinated linker. […] HDAH = HDAC-like amidohydrolase

Another assay concerns the target T1, HDAC6 (Homo sapiens, UniProt Q9UBN7).
T1 sequence (Q9UBN7 1-1215): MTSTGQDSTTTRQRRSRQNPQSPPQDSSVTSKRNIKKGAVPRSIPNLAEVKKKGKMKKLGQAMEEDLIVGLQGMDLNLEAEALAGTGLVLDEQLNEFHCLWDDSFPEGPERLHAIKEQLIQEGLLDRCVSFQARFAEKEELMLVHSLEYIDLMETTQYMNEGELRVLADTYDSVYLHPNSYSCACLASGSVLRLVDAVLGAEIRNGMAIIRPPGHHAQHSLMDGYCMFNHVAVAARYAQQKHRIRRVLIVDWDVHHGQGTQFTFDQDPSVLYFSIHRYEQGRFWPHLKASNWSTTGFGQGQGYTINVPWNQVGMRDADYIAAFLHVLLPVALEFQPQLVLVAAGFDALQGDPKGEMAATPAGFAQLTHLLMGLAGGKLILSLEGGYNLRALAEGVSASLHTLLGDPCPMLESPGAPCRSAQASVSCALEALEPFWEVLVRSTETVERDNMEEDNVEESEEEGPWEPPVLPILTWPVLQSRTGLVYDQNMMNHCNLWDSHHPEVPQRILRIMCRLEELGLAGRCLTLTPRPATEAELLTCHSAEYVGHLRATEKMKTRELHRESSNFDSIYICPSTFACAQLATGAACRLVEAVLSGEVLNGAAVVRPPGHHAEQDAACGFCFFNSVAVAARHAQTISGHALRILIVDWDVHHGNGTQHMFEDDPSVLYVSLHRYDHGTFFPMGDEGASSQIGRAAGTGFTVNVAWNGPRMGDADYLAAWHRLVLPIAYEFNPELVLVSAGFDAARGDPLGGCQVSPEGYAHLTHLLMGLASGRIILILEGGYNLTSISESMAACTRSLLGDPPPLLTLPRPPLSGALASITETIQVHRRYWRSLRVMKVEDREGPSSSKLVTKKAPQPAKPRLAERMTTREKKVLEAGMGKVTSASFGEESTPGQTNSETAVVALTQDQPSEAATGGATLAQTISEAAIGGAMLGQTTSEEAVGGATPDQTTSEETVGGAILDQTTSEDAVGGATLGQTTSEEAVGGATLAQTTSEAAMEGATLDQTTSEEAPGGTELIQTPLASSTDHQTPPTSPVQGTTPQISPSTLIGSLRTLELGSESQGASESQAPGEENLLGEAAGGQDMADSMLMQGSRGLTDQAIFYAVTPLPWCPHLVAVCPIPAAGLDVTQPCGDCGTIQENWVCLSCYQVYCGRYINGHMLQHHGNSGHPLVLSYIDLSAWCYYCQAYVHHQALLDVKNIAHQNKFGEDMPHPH
How it is done: as §1, §2, §3

The next assay has as its target T2, HDAC7 (Homo sapiens, UniProt Q8WUI4).
T2 sequence (Q8WUI4 1-952): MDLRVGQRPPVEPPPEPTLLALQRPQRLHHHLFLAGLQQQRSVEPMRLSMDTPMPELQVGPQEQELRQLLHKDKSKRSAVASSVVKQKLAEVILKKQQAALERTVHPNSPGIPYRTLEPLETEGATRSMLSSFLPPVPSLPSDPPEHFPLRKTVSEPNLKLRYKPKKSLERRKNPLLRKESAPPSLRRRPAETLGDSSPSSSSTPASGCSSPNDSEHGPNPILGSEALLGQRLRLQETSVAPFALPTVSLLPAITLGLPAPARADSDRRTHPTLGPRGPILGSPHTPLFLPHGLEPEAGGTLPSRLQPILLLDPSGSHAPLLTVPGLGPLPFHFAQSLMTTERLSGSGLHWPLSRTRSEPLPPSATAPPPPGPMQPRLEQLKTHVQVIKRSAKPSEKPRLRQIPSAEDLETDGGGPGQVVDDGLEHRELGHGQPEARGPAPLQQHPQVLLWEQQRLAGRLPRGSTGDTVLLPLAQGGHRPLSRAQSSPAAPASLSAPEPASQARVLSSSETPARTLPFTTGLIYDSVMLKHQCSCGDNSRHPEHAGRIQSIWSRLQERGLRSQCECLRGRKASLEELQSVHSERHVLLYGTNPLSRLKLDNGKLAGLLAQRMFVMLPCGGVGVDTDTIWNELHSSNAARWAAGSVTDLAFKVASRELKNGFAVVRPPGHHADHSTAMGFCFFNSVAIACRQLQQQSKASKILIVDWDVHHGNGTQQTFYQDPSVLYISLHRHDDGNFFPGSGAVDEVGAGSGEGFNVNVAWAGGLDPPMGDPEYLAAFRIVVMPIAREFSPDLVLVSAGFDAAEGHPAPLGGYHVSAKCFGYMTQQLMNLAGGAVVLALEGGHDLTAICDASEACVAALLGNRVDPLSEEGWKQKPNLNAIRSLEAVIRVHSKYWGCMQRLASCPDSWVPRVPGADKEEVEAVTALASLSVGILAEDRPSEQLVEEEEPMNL
As to the method:
as §1, §2, §3

For the next assay, the target named is T3, HDAC8 (Homo sapiens, UniProt Q9BY41).
T3 sequence (Q9BY41 1-377): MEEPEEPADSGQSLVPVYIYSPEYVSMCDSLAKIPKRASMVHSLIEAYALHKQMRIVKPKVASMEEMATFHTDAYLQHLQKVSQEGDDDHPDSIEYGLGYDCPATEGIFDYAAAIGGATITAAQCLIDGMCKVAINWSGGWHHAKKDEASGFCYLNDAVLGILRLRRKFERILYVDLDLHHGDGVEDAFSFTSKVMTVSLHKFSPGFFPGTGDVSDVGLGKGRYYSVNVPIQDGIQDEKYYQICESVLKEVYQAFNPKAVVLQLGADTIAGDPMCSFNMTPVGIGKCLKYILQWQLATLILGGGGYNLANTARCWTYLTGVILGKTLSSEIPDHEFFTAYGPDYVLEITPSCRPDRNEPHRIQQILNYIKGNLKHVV
As to the method: as §1, §2, §3

The target of another assay is T4, HDAH (Alcaligenes sp., UniProt Q70I53).
T4 sequence (Q70I53 1-369): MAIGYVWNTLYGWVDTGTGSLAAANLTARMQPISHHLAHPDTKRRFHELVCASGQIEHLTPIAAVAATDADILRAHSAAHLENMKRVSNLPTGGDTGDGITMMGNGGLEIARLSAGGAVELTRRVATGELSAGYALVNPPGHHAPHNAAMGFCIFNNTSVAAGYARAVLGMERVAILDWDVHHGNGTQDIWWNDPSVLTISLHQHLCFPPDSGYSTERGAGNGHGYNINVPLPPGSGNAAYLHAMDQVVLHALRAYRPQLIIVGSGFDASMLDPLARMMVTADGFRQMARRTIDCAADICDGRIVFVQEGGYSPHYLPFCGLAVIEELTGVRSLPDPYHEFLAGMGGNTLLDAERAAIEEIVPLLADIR
As to the method:
as §1, §2, §3

The mark [1] stands for this setting: ε-acetylated lysine substrate, trypsin release of 7-amino-4-methylcoumarin, four parameter fit, read-out: IC50 values HDAC1.
[2] abbreviates: ε-acetylated lysine substrate, trypsin release of 7-amino-4-methylcoumarin, four parameter fit, read-out: IC50 values HDAC6.
[3] abbreviates: ε-acetylated lysine substrate, trypsin release of 7-amino-4-methylcoumarin, four parameter fit, read-out: IC50 values HDAC7.
Where [4] appears, read: ε-acetylated lysine substrate, trypsin release of 7-amino-4-methylcoumarin, four parameter fit, read-out: IC50 values HDAC8.
Where [5] appears, read: HDAC-like amidohydrolase, ε-acetylated lysine substrate, trypsin release of 7-amino-4-methylcoumarin, four parameter fit, read-out: IC50 values HDAH.

HDAC1, sequence (Q13547 whole entry): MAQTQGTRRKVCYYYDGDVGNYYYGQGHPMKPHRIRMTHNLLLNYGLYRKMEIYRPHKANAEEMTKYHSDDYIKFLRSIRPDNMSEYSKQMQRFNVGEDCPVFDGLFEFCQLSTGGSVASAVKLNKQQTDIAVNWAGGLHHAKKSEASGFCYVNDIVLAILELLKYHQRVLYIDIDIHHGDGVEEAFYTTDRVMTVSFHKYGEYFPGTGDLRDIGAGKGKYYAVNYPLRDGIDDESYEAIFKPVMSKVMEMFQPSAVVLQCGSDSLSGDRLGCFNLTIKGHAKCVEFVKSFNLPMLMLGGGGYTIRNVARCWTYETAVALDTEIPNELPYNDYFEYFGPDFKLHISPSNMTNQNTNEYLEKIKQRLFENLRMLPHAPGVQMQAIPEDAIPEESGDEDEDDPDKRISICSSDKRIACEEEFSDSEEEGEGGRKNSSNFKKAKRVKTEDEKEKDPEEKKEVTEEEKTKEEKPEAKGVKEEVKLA

As for `O=C(NO)C(F)(F)C(F)(F)C(F)(F)C(F)(F)C(F)(F)C(F)(F)C(=O)Nc1nc(-c2ccccc2)cs1` [LU235, 2,2,3,3,4,4,5,5,6,6,7,7-Dodecafluorooctanedioic acid hydroxyamide (4-phenylthiazol-2-yl)amide], the IC50 on HDAC1 (setting [1]) was determined as 3.31 µM; at HDAC6 (setting [2]), 6.47 µM; on HDAC7 (setting [3]), 1.77 µM; on HDAC8 (setting [4]), 2.1 µM; on HDAH (setting [5]) it was 5.11 µM.
As for `O=C(NO)C(F)(F)C(F)(F)C(F)(F)C(F)(F)C(F)(F)C(F)(F)C(=O)Nc1ccc(-c2cnnn2-c2ccccc2)cc1` [LU236, 2,2,3,3,4,4,5,5,6,6,7,7-Dodecafluorooctanedioic acid hydroxyamide [4-(1-phenyl-1H-[1,2,3]triazol-5-yl)phenyl]amide], the IC50 on HDAC1 (setting [1]) was 83.1 µM; on HDAC6 (setting [2]), 56.6 µM; at HDAC7 (setting [3]), 16.4 µM; on HDAC8 it was above 100 µM; at HDAH (setting [5]), 10.4 µM.
`O=C(NO)C(F)(F)C(F)(F)C(F)(F)C(F)(F)C(F)(F)C(F)(F)C(=O)Nc1ccc(-c2cn(-c3ccccc3)nn2)cc1` [LU 233, 2,2,3,3,4,4,5,5,6,6,7,7-Dodecafluorooctanedioic acid hydroxyamide {4-[1-phenyl-1H-(1,2,3)triazol-4-yl]phenyl}amide]: the IC50 was above 100 µM on HDAC1 (setting [1]); 9.81 µM on HDAC6 (setting [2]); 42.2 µM at HDAC7 (setting [3]); above 100 µM at HDAC8 (setting [4]); 16.9 µM on HDAH (setting [5]).
As to `O=C(NO)C1CCCCC1C(=O)Nc1ccccc1` (centres unmarked) [RK216, reference compound], the IC50 on HDAC1 was above 100 µM; at HDAC6, 44 µM; on HDAC7, above 100 µM; on HDAC8, above 100 µM; at HDAH it was 34.8 µM.

For the origin of these results see patent EP2486923B1, “Histone deacetylase (HDAC) inhibiting compounds and method of making same” (Dr. Felix Jäger und Dr. Stefan Drinkuth Laborgemeinschaft …, priority 2011, dated 2012).
